From publication PMC8887546, “Design and Synthesis of Brain Penetrant Glycopeptide Analogues of PACAP With Neuroprotective Potential for Traumatic Brain Injury and Parkinsonism” (Frontiers in drug discovery, 2022)

Assays:
[1] = test system: C57BL/6 mice, diffuse TBI; assay: Sleep-wake parameters (piezoelectric sleep cage) after TBI; type: in vivo, mouse; details: 10 mg/kg i.p. 30 min prior to TBI
Protocol: 30 min prior to TBI or sham injury, mice were randomly assigned to a therapeutic group and received an intraperitoneal injection of 2LS80Mel (10 mg/kg) or sterile saline (0.25 ml). Groups were as follows: TBI-2LS80Mel n = 17; TBI-vehicle n = 17; sham n = 22 (vehicle n = 11, 2LS80Mel n = 11).
Mice (19–24 g) were subjected to midline fluid percussion injury (mFPI) consistent with methods previously described ([Lifshitz, 2009]; [Harrison et al., 2014]; [Rowe et al., 2014a]; [Rowe et al., 2014b]; [Rowe et al., 2014c]). Mice were anesthetized using 5% isoflurane in 100% oxygen for 5 min and the head of the mouse was placed in a stereotaxic frame with continuously delivered isoflurane at 2.5% via nosecone. […] The injury hub was closed using a Luer-Loc cap and mice were placed in a heated recovery cage and monitored until they were ambulatory before being returned to their respective sleep cages.
For injury induction 24 h post-surgery, mice were re-anesthetized with 5% isoflurane delivered for 3 min. […] Injured mice were monitored for presence of a forearm fencing response and righting reflex times were recorded as indicators of injury severity ([Hosseini and Lifshitz, 2009]). […] After spontaneously righting, mice were placed in a heated recovery cage and monitored until they were ambulatory (approximately 5–15 min) before being returned to their piezoelectric sleep cage (see below). […]

[2] = test system: Sprague Dawley rats, 6-OHDA lesion; assay: Microglia morphology in substantia nigra, IBA1 skeleton analysis (study 2); type: in vivo, rat; details: more severe (40%) lesion, treatment vs vehicle, n = 7
Protocol: Rats were treated with 2LS98Lac or saline (vehicle) as outlined in the Schemes in Figures 9A,B via intraperitoneal (i.p.) injection (15 mg/kg). All animals were made hemi-parkinsonian with unilateral, striatal 6-hydroxydopamine (Sigma Aldrich, St. Louis, MO) injections. After surgery, behavioral assessments were done at 2- and 4-weeks post-surgery. 24 h after the last test animals were either euthanized and whole brains were harvested for future biochemical analysis or perfused and brains collected for immunohistochemistry and stereological assessment of tyrosine hydroxylase-positive (TH+) cells remaining in the SNc. In study 1: n = 16 each group were included, and all underwent the behavioral analysis: n = 16, and for the stereology in the SNc, n = 8 each group was used. In study 2: n = 23 each group were included. […] In the 2LS98Lac group, one video at 4 weeks was lost, reducing n = 22 in this specific analysis, and for the stereology, 2 brains were damaged during processing and could not be included in the stereology of the SNc, therefore […]. For biochemical subanalyses, n = 8 each group. For the microglial morphology subanalysis n = 7 each group.
Three coronal brain sections that contained the substantia nigra (SN) were randomly chosen for each animal. For immunofluorescence of microglia free-floating brain sections were first blocked in 10% horse serum (Vector Laboratories, S-2000–20, Burlingame, CA) and buffer solution (0.01 M PBS, 0.05% Triton, and 0.04% NaN3) for 1 h followed by a 72 h incubation with primary antibodies as appropriate: rabbit anti-IBA1 at 1:1,000 (Wako, 019–19741, Madison, WI), mouse anti-TH at 1:2000 (R& D Systems, MAB7566, Minneapolis, MN). […] All incubation steps were performed at room temperature; washes between incubations were with 0.01 M PBS for 15 min. Vectashield (Vector Laboratories, H-1000) was used to coverslip mounted tissue.
Images were acquired on a confocal microscope (Zeiss NLO 880, San Diego, CA) in 3 fields of view within the SN of each intact and lesioned hemisphere using a ×40 objective (473.33 × 473.33 μm area). […] Threshold parameters were consistent for all images, and the percent area of IBA1 immunofluorescence was measured for each image. The number of cell somas was counted in the IBA1 channel, an approximation of the number of cells imaged in each frame, and all percent area data was divided by this cell count.
Ramified microglial morphology was quantified using an objective and computer-aided skeleton analysis method previously described in detail ([Young and Morrison, 2018]). […] Sampling averages were calculated for each animal within each region (intact SN and lesion SN) prior to statistical analyses. […]

Structure (SMILES) | Cumulative minutes slept in the first 6 h post-injury [1] | Sleep in the first dark period [1] | % area IBA-1/cell on the lesioned side [2] | Microglial branches/cell on the lesioned side [2] | Microglial endpoints/cell on the lesioned side [2] | Microglial process length/cell on the lesioned side [2]
CC[C@H](C)[C@H](NC(=O)CNC(=O)[C@H](CC(=O)O)NC(=O)[C@H](CO)NC(=O)[C@@H](N)Cc1c[nH]cn1)C(=O)N[C@@H](Cc1ccccc1)C(=O)N[C@H](C(=O)N[C@@H](CC(=O)O)C(=O)N[C@@H](CO)C(=O)N[C@@H](Cc1ccc(O)cc1)C(=O)N[C@@H](CO)C(=O)N[C@@H](CCCNC(=N)N)C(=O)N[C@@H](Cc1ccc(O)cc1)C(=O)N[C@@H](CCCNC(=N)N)C(=O)N[C@@H](CCCCN)C(=O)N[C@@H](CCC(N)=O)C(=O)N[C@@H](CC(C)C)C(=O)N[C@@H](C)C(=O)N[C@H](C(=O)N[C@@H](CCCCN)C(=O)N[C@@H](CCCCN)C(=O)N[C@@H](Cc1ccc(O)cc1)C(=O)N[C@@H](CC(C)C)C(=O)N[C@@H](C)C(=O)N[C@@H](C)C(=O)N[C@H](C(=O)N[C@@H](CC(C)C)C(=O)N[C@@H](CO[C@@H]1O[C@H](CO[C@H]2O[C@H](CO)[C@H](O)[C@H](O)[C@H]2O)[C@@H](O)[C@H](O)[C@H]1O)C(N)=O)C(C)C)C(C)C)[C@@H](C)O [Compound 2LS80Mel] | slept comparable minutes to uninjured sham animals | prevented this injury-induced increase in sleep | – | – | – | –
[2H]C([2H])([2H])C([2H])(C([2H])([2H])[2H])[C@]([2H])(NC(=O)[C@H](C)NC(=O)[C@H](C)NC(=O)[C@H](CC(C)C)NC(=O)[C@H](Cc1ccc(O)cc1)NC(=O)[C@H](CCCCN)NC(=O)[C@H](CCCCN)NC(=O)[C@@]([2H])(NC(=O)[C@H](C)NC(=O)[C@H](CC(C)C)NC(=O)[C@H](CCC(N)=O)NC(=O)[C@H](CCCCN)NC(=O)[C@H](CCCNC(=N)N)NC(=O)[C@H](Cc1ccc(O)cc1)NC(=O)[C@H](CCCNC(=N)N)NC(=O)[C@H](CO)NC(=O)[C@H](Cc1ccc(O)cc1)NC(=O)[C@H](CO)NC(=O)[C@H](CC(=O)O)NC(=O)[C@@H](NC(=O)[C@H](Cc1ccccc1)NC(=O)[C@@H](NC(=O)CNC(=O)[C@H](CC(=O)O)NC(=O)[C@H](CO)NC(=O)[C@@H](N)Cc1c[nH]cn1)[C@@H](C)CC)[C@@H](C)O)C([2H])(C([2H])([2H])[2H])C([2H])([2H])[2H])C(=O)N[C@@H](CC(C)C)C(=O)N[C@@H](CO[C@@H]1O[C@H](CO)[C@@H](O[C@@H]2O[C@H](CO)[C@H](O)[C@H](O)[C@H]2O)[C@H](O)[C@H]1O)C(N)=O [Compound 2LS98Lac] | – | – | significant increase | significant increase | trend toward increase | significant increase
